Test results reported in ChEMBL document CHEMBL5042480, “3CL Protease Inhibitors with an Electrophilic Arylketone Moiety as Anti-SARS-CoV-2 Agents” (J Med Chem, 2022).
Where a SMILES comes first, the peptide text is derived from it. The star is where a group is joined. Cbz = O=C(OCc1ccccc1)*; CF3 = FC(F)(F)*

Test: Inhibition of recombinant C-terminal His-tagged SARS coronavirus 1 3CL protease using Boc-Abu-Tle-Leu-Gln-AMC as substrate incubated for 5 mins by Cheng-Prusoff equation analysis
Set-up: species or system Severe acute respiratory syndrome-related coronavirus

## CC(C)C[C@H](NC(=O)[C@@H](NC(=O)[C@H](C)NC(=O)OCc1ccccc1)C(C)C)C(=O)N[C@@H](CCC(N)=O)C(=O)C(F)(F)F (Cbz-AVLQ-CF3)
  Ki: 135 µM
